SMILES strings stand for the structures.

These results are taken from patent publication US20180180626A1, “A METHOD FOR DEVELOPMENT OF RECOMBINANT PROTEINS WITH FINGERPRINT LIKE SIMILARITY TO THE REFERENCE PRODUCT” (STC Biologics, Inc., priority 2014, published 2018).

One test concerns fucosyl transferase. As to the kind of experiment: 2AB glycan analysis of trastuzumab biosimilar isolated from CHO cells treated with 2F-Peracetyl-Fucose (FTI). In kind it is cell-based, Chinese Hamster. The procedure:
Chromatography by HPLC or UPLC is another powerful method to analyze recombinant proteins. For example, glycan species can he quantitated using a fluorescent 2AB labeling method. In this method, glycans are first removed from the protein by digestion with N-glycanase and then a fluorescent label is added to each glycan. The glycans can then be resolved using HILIC based chromatography and quantitated by measuring relative area under the curve. For oxidation quantitation an HIC based method can be used.
To obtain a recipe for production of a biosimilar with a similar glycosylation pattern to the original Herceptin®, CHO cells engineered to express the recombinant protein with an amino acid sequence identical to trastuzumab were first grown in the growth media without any inhibitors to establish a baseline. The glycan Species were analyzed using 2AB glycan method. It was observed that Peak 2 (G0) and Peak 6 (G1), and Peak 7 (mannose-5 and G1′) modifications were lower for the biosimilar than their target profile.
G0, G1 and G1′ modifications are non-fucosylated modifications and are controlled by a host protein called fucosyl transferase and the mannose-5 modification is controlled by the host protein known as α-mannosidase 1. Fucosyl transferase can be inhibited by a variety of fucosyltransferase inhibitors shown in FIG. 2, α-mannosidase 1 can be inhibited by kifunensine.
Briefly to obtain trastuzumab with modifications in the target range, cells were placed in growth media and treated with 2F-Peracetyl-Fucose (FTI) on day 7 at different concentrations (20 μM. 10 μM, 5 μM, 1 μM, 0.1 μM) to identify optimal drug concentration. On day 12 cells were harvested and the trastuzumab biosimilar isolated. […] FTI concentrations used to reach target profile are cell specific so it is expected that different concentrations of the FTI or other modulators would be required when a starting cell line is different from the one described in this example.
Different treatment methods such as Method 2 can be used to obtain target profile. For example, FTI can be added on a daily basis starting on day 5 (Table 3, Method 2) rather than on Day 7.

The next test has as its system α-mannosidase I. As to the kind of experiment: 2AB glycan analysis of trastuzumab biosimilar isolated from CHO cells treated with kifunensine (KFI), with FTI. In kind it is cell-based, Chinese Hamster. Particulars: treated on Day 7; tested about 0.001 ng/ml-100 ng/ml. The procedure:
Chromatography by HPLC or UPLC is another powerful method to analyze recombinant proteins. For example, glycan species can he quantitated using a fluorescent 2AB labeling method. In this method, glycans are first removed from the protein by digestion with N-glycanase and then a fluorescent label is added to each glycan. The glycans can then be resolved using HILIC based chromatography and quantitated by measuring relative area under the curve. For oxidation quantitation an HIC based method can be used. To obtain a recipe for production of a biosimilar with a similar glycosylation pattern to the original Herceptin®, CHO cells engineered to express the recombinant protein with an amino acid sequence identical to trastuzumab were first grown in the growth media without any inhibitors to establish a baseline. The glycan Species were analyzed using 2AB glycan method. It was observed that Peak 2 (G0) and Peak 6 (G1), and Peak 7 (mannose-5 and G1′) modifications were lower for the biosimilar than their target profile. G0, G1 and G1′ modifications are non-fucosylated modifications and are controlled by a host protein called fucosyl transferase and the mannose-5 modification is controlled by the host protein known as α-mannosidase 1. Fucosyl transferase can be inhibited by a variety of fucosyltransferase inhibitors shown in FIG. 2, α-mannosidase 1 can be inhibited by kifunensine. […]

Setting [1] is: Method 2 - […]-[…] FTI every day starting at day 5.

With `CC(=O)OC1O[C@@H](C)[C@@H](OC(C)=O)[C@@H](OC(C)=O)[C@@H]1F` (some centres unmarked) [FTI, 2F-Peracetyl-Fucose], the “G0, G1 and G1′ levels versus target PTM range” value with fucosyl transferase (10 μM FTI on day 7, harvest day 12) is listed as “matched the target PTM range”. The “G0, G1 and G1′ levels versus target PTM range” value with fucosyl transferase (20 μM FTI on day 7, harvest day 12) was “increase of G0, G1 and G1′ PTMs above that of target PTMs”. Moreover, the “modifications versus target range” value with fucosyl transferase (FTI at concentrations lower than 8 μM) is listed as “outside the target range”. In addition, in the test with fucosyl transferase (Method 1 - 10 μM FTI - Day 7), the “Glycan Species Peak 2-G0” value was 4%, the “Glycan Species Peak 3” value was 1.5%, the “Glycan Species Peak 4-G0F” value was 44% and the “Glycan Species Peak 5” value turned out to be 0.8%. In addition, in the test on fucosyl transferase (Method 1 - 10 μM FTI - Day 7), the “Glycan Species Peak 6-G1” value is recorded as 1.8%, the “Glycan Species Peak 7- G1F/mannose 5” value was 1.2%, the “Glycan Species Peak 8- (1,6)G1F” value came to 26% and the “Glycan Species Peak 9 (1,3)G1F” value was found to be 11%. In the test with fucosyl transferase (Method 1 - 10 μM FTI - Day 7), the “Glycan Species Peak 10 G2F” value is recorded as 6.5%, the “Glycan Species Peak 11” value stood at 0.2%, the “Glycan Species Peak 12” value is listed as 0.25% and the “Glycan Species Peak 13” value was found to be 0.2%. Also, in the test on fucosyl transferase (Method 1 - 10 μM FTI - Day 7), the “Glycan Species Peak 14” value stood at 0.2% and the “Glycan Species Peak 15” value is 0.2%. Moreover, the “Glycan Species Peak 1” value in the test on fucosyl transferase (Method 1 - 10 μM FTI - Day 7, trastuzumab biosimilar, harvest day 12) is recorded as 1.5%. For the same compound, in the test with fucosyl transferase (setting [1]), the “Glycan Species Peak 4-G0F” value turned out to be 44%, the “Glycan Species Peak 8- (1,6)G1F” value amounted to 26%, the “Glycan Species Peak 9 (1,3)G1F” value is 11% and the “Glycan Species Peak 10 G2F” value is listed as 6.5%.

With `O=C1N[C@@H]2[C@@H](O)[C@@H](O)[C@H](O)[C@@H](CO)N2C1=O` [kifunensine], in the test on α-mannosidase I, the “ideal concentration for optimization of the mannose species” value was 1 to 10 ng/mL.
